The results in this text go back to patent publication EP0249401A1, “Antianemic agent” (YAMANOUCHI PHARMACEUTICAL CO. LTD., priority 1986, dated 1987).

A short description of this data set: Acute toxicity (LD50) on intraperitoneal injection into mice. Conditions: mouse, in vivo, ip.

`CC(C)OC(=O)CNC(=O)[C@H](CS)NC(=O)CC[C@H](N)C(=O)O` [isopropyl ester, isopropyl y-L-glutamyl-L-cysteinylglycinate]: the LD50 was around 5300 mg/kg.

For orientation: LD50 means the dose expected to kill half of the subjects tested.
